Assay results as given in patent US6150393A (priority 1999, dated 2000).

Tests used:
[1] = test system: human mutated 5HT2A receptor, AP-3; assay: Receptor-mediated inositol phosphate (IP3) accumulation, AP-3; format: cell-based; conditions: for IP3 % of Control: 10 μM test compound, triplicate, control without test compound
Method: On day one, 1×10^7 293 cells per 150 mm plate were plated out. On day two, two reaction tubes were prepared (the proportions to follow for each tube are per plate): tube A was prepared by mixing 20 μg DNA (e.g., pCMV vector; pCMV vector AP-1 cDNA, etc.) in 1.2 ml serum free DMEM (Irvine Scientific, Irvine, Calif.); tube B was prepared by mixing 120 μl lipofectamine (Gibco BRL) in 1.2 ml serum free DMEM. Tubes A and B were then admixed by inversions (several times), followed by incubation at room temperature for 30-45 min. The admixture is referred to as the "transfection mixture". Plated 293 cells were washed with 1×PBS, followed by addition of 10 ml serum free DMEM. 2.4 ml of the transfection mixture was then added to the cells, followed by incubation for 4 hrs at 37° C./5% CO2. On day 3, cells were trypsinized and counted, followed by plating of 1×10^6 cells/well (poly D-lysine treated 12-well plates). Cells were permitted to adhere to the wells, followed by one wash with 1×PBS. Thereafter, 0.5 μCi ^3 H-inositol in 1 ml inositol-free DMEM was added per well. Protocol B.
On day 4, the cells were washed with 0.5 ml PBS and then 0.45 ml of assay medium was added containing inositol-free/serum free media, 10 μM pargyline, 10 mM lithium chloride, or 0.4 ml of assay medium and 50 ul of 10× ketanserin (ket) to a final concentration of 10 μM. The cells were then incubated for 30 minutes at 37° C. Then the cells were washed with 0.5 ml PBS and 200 ul of fresh/ice cold stop solution (1M KOH; 18 mM Na-borate; 3.8 mM EDTA) was added/well. The solution was kept on ice for 5-10 minutes or until the cells were lysed and then neutralized by 200 μl of fresh/ice cold neutralization sol. (7.5% HCL). The lysate was then transferred into 1.5 ml microcentrifuge tubes and 1 ml of chloroform/methanol (1:2) was added/tube. The solution was vortexed for 15 seconds and the upper phase was applied to a Biorad AG1-X8 anion exchange resin (100-200 mesh). The resin was washed with water and 0.9 ml of the upper phase was loaded onto the column. The column was washed with 10 mls of 5 mM myo-inositol and 10 ml of 5 mM Na-borate/60 mM Na-formate. The inositol trisphosphates were eluted into scintillation vials containing 10 ml of scintillation cocktail with 2 ml of 0.1 M formic acid/1 M ammonium formate. The columns were regenerated by washing with 10 ml of 0.1 M formic acid/3M ammonium formate and rinsed twice with dd H2 O and stored at room temperature in water.
Candidate compound identified in the assays of Examples 9a-9c were then evaluated for inositol phosphate accumulation, following the protocol of Example 5 ([…] expressing human mutated 5HT2A receptor, AP-3), modified as follows: tube A was prepared by mixing 16 μg DNA (e.g., pCMV vector; pCMV vector AP-1 cDNA, etc.) in 1.0 ml serum free DMEM (Irvine Scientific, Irvine, Calif.); tube B was prepared by mixing 60 μl lipofectamine (Gibco BRL) in 1.0 ml serum free DMEM. Tubes A and B were then admixed by inversions (several times), followed by incubation at room temperature for 30 min. The admixture is referred to as the "transfection mixture". Plated 293 cells were washed with 10 ml Serum Free DMEM, followed by addition of 11 ml Serum Free DMEM. 2.0 ml of the transfection mixture was then added to the cells, followed by incubation for 5 hrs at 37° C./5% CO2. On day 3, cells were trypsinized and counted, followed by plating of 1×10^6 cells/well (12-well plates). Cells were permitted to adhere to the wells for 8 hrs, followed by one wash with 1×PBS. Thereafter, 0.5 μCi ^3 H-inositol in 1 ml inositol-free DMEM was added per well.
On day 4, the cells were washed with 1.5 ml PBS and then 0.9 ml of assay medium was added containing inositol-free/serum free media, 10 μM pargyline, 10 mM lithium chloride, for 5 min in 37° C./5% CO2 followed by 100 μl addition of candidate compound diluted in the same material. The cells were then incubated for 120 minutes at 37° C. […]

[2] = Bar catalepsy test in rats (extrapyramidal side effect analysis); format: in vivo, rat (male Sprague-Dawley); conditions: 0.8 mg/kg
[3] = molecular target: T1, endogenous human 5-HT2C receptor (Homo sapiens, UniProt P28335); conditions: data not shown
T1 sequence (P28335 33-458): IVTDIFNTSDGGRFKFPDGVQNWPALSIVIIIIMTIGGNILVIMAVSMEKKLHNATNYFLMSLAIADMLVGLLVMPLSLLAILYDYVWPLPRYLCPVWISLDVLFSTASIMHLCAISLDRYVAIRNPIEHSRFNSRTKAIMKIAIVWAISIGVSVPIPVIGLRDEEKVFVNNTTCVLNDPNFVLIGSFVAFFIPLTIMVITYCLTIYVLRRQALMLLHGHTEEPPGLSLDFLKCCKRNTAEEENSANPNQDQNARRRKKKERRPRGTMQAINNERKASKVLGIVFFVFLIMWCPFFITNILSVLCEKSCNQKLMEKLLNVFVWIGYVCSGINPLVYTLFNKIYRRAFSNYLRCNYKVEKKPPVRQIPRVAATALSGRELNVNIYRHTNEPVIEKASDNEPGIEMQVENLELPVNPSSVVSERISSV

Row | SMILES | IP3 % of Control [1] | also measured
1 | Cn1cc(Br)c(-c2cccc(NC(=O)Nc3ccc(OC(F)(F)F)cc3)c2)n1 [Compound 103487, N-[3-(4-bromo-1-methylpyrazol-3-yl)phenyl][{(4-trifluoromethoxy)phenyl}amino]carboxamide] |  | IC50 ([1]; AP-3, Example 10): 90 nM
2 | CSc1ccc(NC(=O)Nc2cccc(-c3nn(C)cc3Br)c2)cc1 [Compound 116079, N-[3-(4-bromo-1-methylpyrazol-3-yl)phenyl][(4-methylthiophenyl)amino]carboxamide] | 16% | 
3 | Cn1cc(Br)c(-c2cccc(NC(=O)Nc3ccccc3OC(F)(F)F)c2)n1 [Compound 116087, {[3-(4-bromo-1-methylpyrazol-3-yl)phenyl]amino}-N-[2-(trifluoromethoxy)phenyl]carboxamide] | 11% | 
4 | Cn1cc(Br)c(-c2cccc(NC(=O)Nc3ccccc3[N+](=O)[O-])c2)n1 [Compound 116089, {[3-(4-bromo-1-methylpyrazol-3-yl)phenyl]amino}-N-(2-nitrophenyl)carboxamide] | 27% | 
5 | COc1ccc(NC(=O)Nc2cccc(-c3nn(C)cc3Br)c2)cc1 [Compound 116091, {[3-(4-bromo-1-methylpyrazol-3-yl)phenyl]amino}-N-(4-methoxyphenyl)carboxamide] | 12% | 
6 | Cc1ccccc1NC(=O)Nc1cccc(-c2nn(C)cc2Br)c1 [Compound 116092, {[3-(4-bromo-1-methylpyrazol-3-yl)phenyl]amino}-N-(2-methylphenyl)carboxamide] | 32% | 
7 | Cn1cc(Br)c(-c2cccc(NC(=O)Nc3ccc(C(F)(F)F)cc3)c2)n1 [Compound 116097, {[3-(4-bromo-1-methylpyrazol-3-yl)phenyl]amino}-N-[4-(trifluoromethyl)phenyl]carboxamide] | 11% | 
8 | Cn1cc(Br)c(-c2cccc(NC(=O)Nc3cccc(Cl)c3)c2)n1 [Compound 116105, {[3-(4-bromo-1-methylpyrazol-3-yl)phenyl]amino}-N-(3-chlorophenyl)carboxamide] | 11% | 
9 | Cn1cc(Br)c(-c2cccc(NC(=O)Nc3ccccc3Cl)c2)n1 [Compound 116108, {[3-(4-bromo-1-methylpyrazol-3-yl)phenyl]amino}-N-(2-chlorophenyl)carboxamide] | 6% | 
10 | CC(C)c1ccc(NC(=O)Nc2cccc(-c3nn(C)cc3Br)c2)cc1 [Compound 116110, {[3-(4-bromo-1-methylpyrazol-3-yl)phenyl]amino}-N-[4-(methylethyl)phenyl]carboxamide] | 7% | 
11 | COc1cccc(NC(=O)Nc2cccc(-c3nn(C)cc3Br)c2)c1 [Compound 116111, {[3-(4-bromo-1-methylpyrazol-3-yl)phenyl]amino}-N-(3-methoxyphenyl)carboxamide] | 7% | 
12 | Cc1cccc(NC(=O)Nc2cccc(-c3nn(C)cc3Br)c2)c1 [Compound 116112, {[3-(4-bromo-1-methylpyrazol-3-yl)phenyl]amino}-N-(3-methylphenyl)carboxamide] | 14% | 
13 | Cn1cc(Br)c(-c2cccc(NC(=O)Nc3ccc(C(C)(C)C)cc3)c2)n1 [Compound 116119, N-[4-(tert-butyl)phenyl]{[3-(4-bromo-1-methylpyrazol-3-yl)phenyl]amino}carboxamide] | 17% | 
14 | CN(C)c1ccc(NC(=O)Nc2cccc(-c3nn(C)cc3Br)c2)cc1 [Compound 116122, N-[4-(dimethylamino)phenyl]{[3-(4-bromo-1-methylpyrazol-3-yl)phenyl]amino}carboxamide] | 9% | 
15 | Cc1c(Cl)cc(NC(=O)Nc2cccc(-c3nn(C)cc3Br)c2)cc1Cl [Compound 116138, N-(3,5-dichloro-4-methylphenyl){[3-(4-bromo-1-methylpyrazol-3-yl)phenyl]amino}carboxamide] | 23% | 
16 | Cn1cc(Br)c(-c2cccc(NC(=O)Nc3ccc(SC(F)(F)F)cc3)c2)n1 [Compound 116139, {[3-(4-bromo-1-methylpyrazol-3-yl)phenyl]amino}-N-[4-(trifluoromethylthio)phenyl]carboxamide] | 12% | 
17 | Cn1cc(Br)c(-c2cccc(NC(=O)Nc3ccccc3F)c2)n1 [Compound 116144, {[3-(4-bromo-1-methylpyrazol-3-yl)phenyl]amino}-N-(2-fluorophenyl)carboxamide] | 12% | 
18 | Cn1cc(Br)c(-c2cccc(NC(=O)Nc3ccccc3C(N)=O)c2)n1 [Compound 116145, 2-({[3-(4-bromo-1-methylpyrazol-3-yl)phenyl]amino}carbonylamino)benzamide] | 31% | 
19 | Cn1cc(Br)c(-c2cccc(NC(=O)Nc3ccc(C#N)cc3)c2)n1 [Compound 116147, {[3-(4-bromo-1-methylpyrazol-3-yl)phenyl]amino}-N-(4-cyanophenyl)carboxamide] | 12% | 
20 | Cn1cc(Br)c(-c2cccc(NC(=O)Nc3ccccc3C#N)c2)n1 [Compound 116148, {[3-(4-bromo-1-methylpyrazol-3-yl)phenyl]amino}-N-(2-cyanophenyl)carboxamide] | 30% | 
21 | O=C(CCCN1CCC(O)(c2ccc(Cl)cc2)CC1)c1ccc(F)cc1 [haloperidol, reference compound] |  | induction of catalepsy [2]: induces catalepsy in rats; time spent on the bar [2]: significant increase in time spent on the bar
22 | CN1CCN2c3ccccc3Cc3ccccc3C2C1 (stereo not shown) [mianserin] |  | inhibition of serotonin-stimulated [35S]GTPγS binding ([3]; 30 μM mianserin): completely inhibited; effect on serotonin response of [35S]GTPγS binding [3]: inhibits this response; effect on basal constitutive binding of [35S]GTPγS ([3]; no agonist): partial inverse agonist
